According to patent US10718006B2, “Methods for detecting beta-lactamase-producing bacteria” (priority 2015, dated 2020):

Legend:
[1] = Cyclic voltammetry of nitrocefin and its form hydrolyzed by ESBL; assay type: physicochemical; settings: screen-printed carbon electrodes; for peak of irreversible anodic oxidation (a1): PBS pH 7.0
From the text: Each sensor consists of the working electrode and a counter-electrode. The working area of the sensor (7.07 mm^2) is delimited with an adhesive ring, which also allows the electrochemical cell to be defined. For carrying out amperometric measurement, the sensor is inserted in a connector (Dropsens) connected to the potentiostat, and then a 20-μL drop of the solution to be analyzed is deposited on the surface of the sensor. After immersing a silver wire coated with a silver chloride precipitate (Ag/AgCl), which constitutes the reference electrode, the measurements are carried out by cyclic voltammetry (v=50 mV·s^−1) at ambient temperature.
5 μL of ESBL solution is put in a polypropylene tube containing 45 μL of 0.5 mM nitrocefin solution in phosphate buffer (PBS; 100 mM; pH=7.0). After a step of incubation for 10 minutes at ambient temperature in the dark, 20 μL of the mixture is taken and transferred onto the surface of the screen-printed carbon sensor. A reference electrode (Ag/AgCl) is then immersed in the 20 μL of solution previously deposited, and the cyclic voltammetry measurements are carried out by proceeding as follows: potential scanning between −0.4 V and 1.2 V at a rate of 50 mV·s^−1.
The oxidation peak appearing at about +0.3 V results from hydrolysis of the beta-lactam ring of nitrocefin and may be selected as the analytical response for identifying beta-lactamases in a sample.
Nitrocefin was hydrolyzed by an extended-spectrum beta-lactamase in an abundant quantity. The voltammetric behaviour of nitrocefin (S) and of its hydrolyzed form (P) was investigated by cyclic voltammetry using screen-printed electrodes based on carbon. Nitrocefin and hydrolyzed nitrocefin both have a peak of irreversible anodic oxidation (a1) at about +1.0 V vs. Ag/AgCl. This peak may be attributed to oxidation of the thiol group in the dihydrothiazine group or to other functions specific to the cephalosporin derivatives. […]

[2] = system: ESBL+ E. coli strain; assay: ESBL+ E. coli cultured with cefotaxime with or without clavulanate potassium; assay type: cell-based
Method: FIG. 4: Cyclic voltammograms (v=50 mV·s^−1) recorded with a screen-printed sensor for the E. coli strain ESBL^+ cultured in a culture medium containing only 4 μg·mL^−1 of cefotaxime (A) or supplemented with 10 μg·mL^−1 of clavulanate potassium, then centrifuged (1 mL; 7000 g; 10 min) before a step of incubation of the pellet with 50 μL in a 500-μM solution of nitrocefin in PBS for 10 min.
Since the hyperproduced cephalosporinases and the carbapenemases can also hydrolyse cefotaxime, the bacteria producing these enzymes can also give a positive response in the presence of cefotaxime. In order to distinguish the bacteria producing extended-spectrum beta-lactamases and the bacteria producing hyperproduced cephalosporinases and carbapenemases, the bacteria were cultured simultaneously in two culture media, one containing cefotaxime as antibiotic, the other additionally containing clavulanate potassium as inhibitor of ESBLs. After recovering the bacteria, the bacterial pellets were incubated with nitrocefin as substrate.

[3] = system: E. coli strains ESBL+ (MIAE6690) and ESBL− (K12); assay: Optical density of E. coli strains cultured with cefotaxime; assay type: cell-based
[4] = system: E. coli strains ESBL+ (MIAE6690) and ESBL− (K12); assay: Voltammetric detection of ESBL-producing E. coli with nitrocefin; assay type: cell-based; settings: pellet incubated 10 min with 500 μM nitrocefin
Method: Then 1 mL of each bacterial suspension is transferred to a polypropylene tube and centrifuged at 7000 g for 10 min. After removing the supernatant, a volume of 50 μL of nitrocefin solution (0.5 mM in PBS) is put in the tube and incubated with the bacterial pellet for 10 min at ambient temperature in the dark. The liquid is then aspirated and transferred onto the screen-printed sensor to carry out the voltammetric measurement as stated in section 1.3.
To evaluate the capacity of the voltammetric method for detecting the ESBL-producing bacteria, two strains of E. coli with a well-characterized genotype were selected, one being a producer of an ESBL (ESBL^+) and the other not producing ESBL (ESBL^−). First the two strains are cultured in LB medium containing 4 μg·mL^−1 of cefotaxime. After the centrifugation step, the respective bacterial pellets of these two strains are incubated with nitrocefin as substrate. […] The culture medium supplemented with cefotaxime and the medium without antibiotic were also subjected to voltammetric measurement. No specific signal is observed in the potential range [0.1-0.6 V vs. Ag/AgCl] for these two media, which confirms that neither the LB culture medium, nor cefotaxime interferes with voltammetric detection.

## O=C(Cc1cccs1)NC(C(=O)O)C1NC(C(=O)O)=C(C=Cc2ccc([N+](=O)[O-])cc2[N+](=O)[O-])CS1 (stereo not shown) [hydrolyzed nitrocefin]
[1]
  peak of irreversible anodic oxidation (a1): about +1.0 V vs. Ag/AgCl
[1]; PBS pH 7.0, nitrocefin hydrolyzed by ESBL
  peak of irreversible anodic oxidation (a2): about +0.3 V

## O=C(O)[C@H]1/C(=C/CO)O[C@@H]2CC(=O)N21 [clavulanate potassium]
[2]; ESBL+ strain cultured with 4 μg·mL^−1 cefotaxime and 10 μg·mL^−1 clavulanate potassium
  anodic peak resulting from hydrolysis of nitrocefin: no signal was recorded
[2]; culture with cefotaxime supplemented with an inhibitor (clavulanate potassium)
  E. coli count on selective medium: 80 CFU·mL^−1

## CO/N=C(\C(=O)N[C@@H]1C(=O)N2C(C(=O)O)=C(COC(C)=O)CS[C@H]12)c1csc(N)n1 [cefotaxime]
[3]; ESBL+ E. coli strain cultured in LB with 4 μg·mL^−1 cefotaxime
  optical density: 0.934
[3]; ESBL− E. coli strain cultured in LB with 4 μg·mL^−1 cefotaxime
  optical density: 0.002
[2]; culture with cefotaxime without inhibitor
  E. coli count on selective medium: 1.8×10^8 CFU·mL^−1

## O=C(Cc1cccs1)N[C@@H]1C(=O)N2C(C(=O)O)=C(/C=C/c3ccc([N+](=O)[O-])cc3[N+](=O)[O-])CS[C@H]12 [nitrocefin]
[1]
  peak of irreversible anodic oxidation (a1): about +1.0 V vs. Ag/AgCl
[4]; ESBL+ E. coli strain
  anodic peak associated with hydrolysis of the β-lactam ring of nitrocefin: about +0.4 V vs. Ag/AgCl
[4]; ESBL− E. coli strain
  anodic peak associated with hydrolysis of the β-lactam ring of nitrocefin: no peak is recorded
